Experimental data from patent publication US11214803B2, “Modulators of YAP1 expression” (Ionis Pharmaceuticals, Inc., priority 2019, dated 2022).
Strand notation (5' to 3'): a small letter for the sugar, then the base; units joined by * are phosphorothioate-linked, units joined directly phosphodiester-linked; [ ] holds rarer units or linkages, { } end groups; capitals alone tell only the bases. k = constrained ethyl (cEt); [5mC] = 5-methylcytosine; d = 2'-deoxy (DNA)

system: Yap1 mRNA; assay: Antisense inhibition of human Yap1 in A-431 cells by cEt gapmers, single dose (Example 4, RTS4814); type: cell-based; settings: Table 14; A-431 cells, 5,000 cells per well, free uptake, 2,000 nM, approximately 48 hours; RTS4814; normalized to RIBOGREEN; Yap1 mRNA relative to untreated control; * = targets amplicon region of primer probe set
Outline: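 A-431 cells took up 3-10-3 cEt gapmers (16-mer, full phosphorothioate, 5-methylcytosines) by free uptake at 2,000 nM for about 48 h. Yap1 mRNA was quantified by qRT-PCR, normalized to total RNA (RIBOGREEN), and reported as % of untreated control.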

| Substance | YAP1 (% UTC) |
| --- | --- |
| 1075936 (k[5mC]*kT*kT*dA*dT*dA*dT*dT*d[5mC]*dT*d[5mC]*dT*d[5mC]*k[5mC]*kG*kA; antisense) [Compound 1075936] | 49 % UTC |
| 1074752 (k[5mC]*kA*kT*dT*dA*dG*dG*dA*dA*d[5mC]*dA*dA*dG*kG*kA*k[5mC]; antisense) [Compound 1074752] | 10 % UTC |
| 1075712 (kG*kA*k[5mC]*dG*d[5mC]*dG*dA*dA*dA*dT*dA*d[5mC]*dT*kT*kA*k[5mC]; antisense) [Compound 1075712] | 7 % UTC |

same assay, conditions: Table 15; A-431 cells, 5,000 cells per well, free uptake, 2,000 nM, approximately 48 hours; RTS4814; normalized to RIBOGREEN; Yap1 mRNA relative to untreated control; * = targets amplicon region of primer probe set

| Substance | YAP1 (% UTC) |
| --- | --- |
| 1074817 (k[5mC]*kT*kG*dA*dA*dT*dA*dT*dT*dG*d[5mC]*d[5mC]*dA*k[5mC]*k[5mC]*k[5mC]; antisense) [Compound 1074817] | 8 % UTC |
| 1074113 (k[5mC]*kT*k[5mC]*d[5mC]*dA*dA*d[5mC]*dT*d[5mC]*d[5mC]*d[5mC]*dT*dT*kG*kA*k[5mC]; antisense) [Compound 1074113] | 61 % UTC |
| 1076513 (antisense k[5mC]*kA*kT*dT*dA*dA*d[5mC]*dA*d[5mC]*dT*d[5mC]*d[5mC]*dT*k[5mC]*kA*kG) [Compound 1076513] | 36 % UTC |
| 1076353 (kA*kT*kT*dA*dA*dA*d[5mC]*dA*dT*dT*d[5mC]*dG*dG*kA*kT*kT; antisense) [Compound 1076353] | 30 % UTC |
| 1075713 (kA*kA*kT*d[5mC]*dA*dA*d[5mC]*d[5mC]*dT*dT*dG*dT*dT*kA*kG*kA; antisense) [Compound 1075713] | 58 % UTC |
| 1074177 (antisense k[5mC]*k[5mC]*kT*d[5mC]*d[5mC]*d[5mC]*d[5mC]*d[5mC]*dG*dA*d[5mC]*dG*d[5mC]*kG*k[5mC]*kA) [Compound 1074177] | 69 % UTC |
| 1076449 (k[5mC]*k[5mC]*kT*dT*dA*dT*dA*dA*dT*dG*d[5mC]*dA*dA*kT*k[5mC]*k[5mC]; antisense) [Compound 1076449] | 2 % UTC |
| 1074529 (kG*k[5mC]*kA*dG*dA*d[5mC]*dT*dG*d[5mC]*d[5mC]*d[5mC]*d[5mC]*dA*kA*k[5mC]*k[5mC]; antisense) [Compound 1074529] | 50 % UTC |
| 1075041 (antisense kG*kA*kT*dT*dA*dT*dA*dA*dA*dG*dA*dG*dG*k[5mC]*kT*k[5mC]) [Compound 1075041] | 5 % UTC |

same assay, conditions: Table 16; A-431 cells, 5,000 cells per well, free uptake, 2,000 nM, approximately 48 hours; RTS4814; normalized to RIBOGREEN; Yap1 mRNA relative to untreated control cells

| Substance | YAP1 (% UTC) |
| --- | --- |
| 1075042 (antisense kT*kT*kA*dA*dA*dA*dG*dG*dT*dT*dT*dG*dG*k[5mC]*kA*k[5mC]) [Compound 1075042] | 17 % UTC |
| 1075362 (k[5mC]*kA*kG*dG*dA*dA*dA*dA*dA*dT*d[5mC]*dT*dA*kG*kG*kT; antisense) [Compound 1075362] | 50 % UTC |
| 1075938 (kG*kA*kA*dT*dA*dT*dA*dT*dG*dG*dG*dT*dT*kT*k[5mC]*kA; antisense) [Compound 1075938] | 55 % UTC |
| 1074498 (kA*k[5mC]*kA*dA*dT*dA*dA*d[5mC]*d[5mC]*dA*dT*d[5mC]*d[5mC]*k[5mC]*kA*kA; antisense) [Compound 1074498] | 17 % UTC |
| 1076098 (kT*kT*kA*d[5mC]*dA*dA*dT*dA*dA*dT*dA*dA*dA*k[5mC]*kG*kA; antisense) [Compound 1076098] | 94 % UTC |

same assay, conditions: Table 17; A-431 cells, 5,000 cells per well, free uptake, 2,000 nM, approximately 48 hours; RTS4814; normalized to RIBOGREEN; Yap1 mRNA relative to untreated control cells

| Substance | YAP1 (% UTC) |
| --- | --- |
| 1076483 (antisense kA*k[5mC]*kG*dG*dG*dA*dA*dA*dT*d[5mC]*dA*dT*dA*kT*kA*kG) [Compound 1076483] | 5 % UTC |
| 1076099 (k[5mC]*k[5mC]*kT*d[5mC]*dA*dA*dA*dA*d[5mC]*dT*dT*dG*dG*kA*kT*kT; antisense) [Compound 1076099] | 41 % UTC |
| 1076259 (kA*kT*kT*dT*dA*dA*d[5mC]*dT*d[5mC]*d[5mC]*dT*dG*dA*kA*kG*kT; antisense) [Compound 1076259] | 61 % UTC |
| 1075971 (kT*kA*kT*dT*dA*dA*d[5mC]*dA*dT*dA*d[5mC]*d[5mC]*dT*k[5mC]*kA*kT; antisense) [Compound 1075971] | 28 % UTC |
| 1074915 (antisense kA*kG*kT*dT*dA*d[5mC]*dA*dT*d[5mC]*d[5mC]*d[5mC]*dG*dA*kG*kT*kG) [Compound 1074915] | 65 % UTC |

same assay, conditions: Yap1 mRNA remaining as percent of untreated control; 3-10-3 cEt gapmers; A-431 cells; Table 36

| Substance | YAP1 (% UTC) |
| --- | --- |
| 1074262 (antisense kG*k[5mC]*k[5mC]*dG*dA*dG*dT*dT*d[5mC]*dA*dT*d[5mC]*dA*kT*kA*kT) [compound 1074262] | 48 % UTC |
| 1076086 (kA*kA*k[5mC]*dT*dA*dA*dT*dA*dG*dG*d[5mC]*d[5mC]*dA*kT*k[5mC]*kT; antisense) [compound 1076086] | 31 % UTC |
| 1074742 (kA*kA*kA*dG*dG*dA*d[5mC]*dT*d[5mC]*dT*dT*dA*dG*kG*kT*k[5mC]; antisense) [compound 1074742] | 25 % UTC |
| 1075542 (kT*kG*kA*dG*dA*dA*dA*dG*dG*dT*dT*d[5mC]*d[5mC]*kT*kG*kA; antisense) [compound 1075542] | 66 % UTC |
| 1075958 (k[5mC]*kA*kT*dT*dA*dT*dG*dA*d[5mC]*dA*dT*dT*d[5mC]*k[5mC]*k[5mC]*k[5mC]; antisense) [compound 1075958] | 12 % UTC |
| 1076470 (kG*kA*kT*dA*dA*dA*dG*dA*dG*dG*dT*dT*dA*kA*k[5mC]*kA; antisense) [compound 1076470] | 34 % UTC |
| 1075606 (antisense kG*k[5mC]*kT*dA*dA*dA*d[5mC]*d[5mC]*dT*dA*d[5mC]*dA*d[5mC]*kG*k[5mC]*kT) [compound 1075606] | 82 % UTC |
| 1075926 (antisense kG*kT*kA*dG*dA*dA*d[5mC]*d[5mC]*dT*dA*dT*dA*dT*kT*kA*kT) [compound 1075926] | 25 % UTC |

same assay, conditions: Yap1 mRNA remaining as percent of untreated control; 3-10-3 cEt gapmers; A-431 cells; Table 37

| Substance | YAP1 (% UTC) |
| --- | --- |
| 1076311 (kT*kA*kT*dA*dA*d[5mC]*d[5mC]*d[5mC]*dT*dA*dT*dA*d[5mC]*kT*kT*kG; antisense) [compound 1076311] | 56 % UTC |
| 1075639 (antisense kA*kA*kT*dT*dA*dA*d[5mC]*d[5mC]*dA*dG*dA*dA*dG*k[5mC]*k[5mC]*kT) [compound 1075639] | 101 % UTC |
| 1076279 (k[5mC]*kA*kA*dT*dA*dA*dG*dG*dA*d[5mC]*dA*dG*dG*kA*k[5mC]*k[5mC]; antisense) [compound 1076279] | 71 % UTC |
| 1074999 (antisense kA*kA*k[5mC]*d[5mC]*dA*dA*d[5mC]*dA*d[5mC]*dG*d[5mC]*dG*dA*k[5mC]*k[5mC]*kT) [compound 1074999] | 77 % UTC |
| 1076503 (kA*kA*kT*dT*dA*d[5mC]*d[5mC]*d[5mC]*d[5mC]*dT*dG*dT*dG*kA*kG*kG; antisense) [compound 1076503] | 77 % UTC |
| 1074455 (k[5mC]*kA*kT*dT*dA*dT*dG*dT*dG*dA*d[5mC]*dT*dA*kA*kT*kG; antisense) [compound 1074455] | 67 % UTC |
| 1074327 (antisense kT*kA*k[5mC]*dG*d[5mC]*dA*dG*dG*dG*d[5mC]*dT*dA*dA*k[5mC]*kT*k[5mC]) [compound 1074327] | 39 % UTC |
| 1075063 (antisense kT*kA*k[5mC]*dG*dG*dA*dA*dG*dG*d[5mC]*d[5mC]*dA*dA*k[5mC]*kT*kG) [compound 1075063] | 16 % UTC |
| 1075543 (kA*kT*kA*dT*dA*dT*dT*dA*dG*dG*dA*dG*dT*kT*kT*k[5mC]; antisense) [compound 1075543] | 22 % UTC |
